Drawing on US20260042755A1, “GPR6 INVERSE AGONISTS” (MapLight Therapeutics, Inc., priority 2022, published 2026), this text covers IC50 for 28 compounds.

The target of one experiment is T1, GPR3 (Homo sapiens, UniProt P46089).
T1 construct: expressed in transfected cells; host or cells: CHO cells
Briefly: GPR3 antagonist functional cAMP assay (LANCE Ultra cAMP TR-FRET, CHO cells stably expressing GPR3). Type of experiment: cell-based. The method in brief: (§1)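 Read-out was TR-FRET cAMP signal at 665 nm after 1 h at room temperature, following 45 min compound exposure at 37 °C. Assay buffer contained 0.1% BSA and 150 μM Ro 20-1724. Antagonist IC50s were fitted with a 4-parameter logistic against DMSO and reference controls.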
In general terms: Cyclic AMP is a second messenger, typically raised through Gs and lowered through Gi signalling.

The next experiment addresses T2, GPR6 (Homo sapiens, UniProt P46095).
T2 construct: expressed in transfected cells; host or cells: CHO cells
The experiment in a line: GPR6 antagonist functional cAMP assay (LANCE Ultra cAMP TR-FRET, CHO cells stably expressing GPR6). In kind it is cell-based. The method in brief:
as §1

The mark [1] stands for this setting: CHO cells stably expressing GPR3, cAMP assay (Example 24).
Setting [2] is: CHO cells stably expressing GPR6, cAMP assay (Example 24).
[3] abbreviates: CHO cells stably expressing GPR3, cAMP assay.
[4] abbreviates: CHO cells stably expressing GPR6, cAMP assay.
Setting [5] is: procedure as described in Example 24.

Some results are limits rather than exact numbers.

T1 sequence (P46089 whole entry, species assumed): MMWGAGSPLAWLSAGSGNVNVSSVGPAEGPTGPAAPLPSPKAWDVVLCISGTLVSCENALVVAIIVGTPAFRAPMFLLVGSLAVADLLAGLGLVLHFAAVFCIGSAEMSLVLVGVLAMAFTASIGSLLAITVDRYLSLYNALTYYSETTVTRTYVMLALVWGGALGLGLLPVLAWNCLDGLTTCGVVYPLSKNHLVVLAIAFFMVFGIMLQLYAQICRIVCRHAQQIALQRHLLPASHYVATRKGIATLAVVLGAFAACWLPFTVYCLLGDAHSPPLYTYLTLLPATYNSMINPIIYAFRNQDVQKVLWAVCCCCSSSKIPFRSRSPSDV
T2 sequence (P46095 whole entry): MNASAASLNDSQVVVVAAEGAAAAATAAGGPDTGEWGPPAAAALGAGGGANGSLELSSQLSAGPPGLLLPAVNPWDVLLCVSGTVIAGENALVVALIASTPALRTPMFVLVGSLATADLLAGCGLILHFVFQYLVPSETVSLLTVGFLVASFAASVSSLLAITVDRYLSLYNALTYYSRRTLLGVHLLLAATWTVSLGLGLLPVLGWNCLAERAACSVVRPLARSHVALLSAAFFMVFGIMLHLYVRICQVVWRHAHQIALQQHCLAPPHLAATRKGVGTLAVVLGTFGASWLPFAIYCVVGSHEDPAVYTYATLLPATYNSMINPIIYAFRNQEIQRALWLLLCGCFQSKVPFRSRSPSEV

As for `Cn1cc(-c2nc3cc(Cl)ncc3nc2N2CCN(Cc3ccc(F)cc3F)CC2)cn1` [Compound 227, 1-[7-chloro-2-(1-methyl-1H-pyrazol-4-yl)pyrido[3,4-b]pyrazin-3-yl]-4-[(2,4-difluorophenyl)methyl] piperazine], the figures for the concentration for half-maximal inhibition (IC50) against GPR3 (setting [1]) and against GPR6 (setting [2]) were 1000 to 30000 nM and 100 to 1000 nM, respectively.

For `CC(=O)N1CCc2nc(N3CCC(Oc4cccc(F)c4F)CC3)c(-c3cnn(C)c3)nc2C1` [Compound 423, 1-{2-[4-(2,3-difluorophenoxy)piperidin-1-yl]-3-(1-methyl-1H-pyrazol-4-yl)-5H,6H,7H,8H-pyrido[3,4-b]pyrazin-6-yl}ethan-1-one], the IC50 on GPR3 (setting [1]) and at GPR6 (setting [2]) was 1000 to 30000 nM in each case.

Take `CC(C)(O)[C@](C)(O)c1cc2nc(-c3cnn(C4CC4)c3)c(N3CCN(Cc4ccccc4F)CC3)nc2cn1` (single isomer, unassigned) [Compound 775]: the figures for the IC50 on GPR3 (procedure of Example 24) and on GPR6 (procedure of Example 24) were 1000 to 30000 nM and 100 to 1000 nM, respectively.

Regarding `COc1cccc(-c2nc3c(nc2N2CCN(Cc4cc(Cl)ccc4Cl)CC2)CCN(C(C)=O)C3)n1` [Compound 183, 1-(2-{4-[(2,5-dichlorophenyl)methyl]piperazin-1-yl}-3-(6-methoxypyridin-2-yl)-5H,6H,7H,8H-pyrido[3,4-b]pyrazin-6-yl)ethan-1-one], the IC50 is 1000 to 30000 nM at GPR3 (setting [1]) and less than 100 nM at GPR6 (setting [2]).

Turning to `Cn1cc(-c2nc3cnc(CO)cc3nc2N2CCN(Cc3ccc(F)cc3F)CC2)cn1` [Compound 194, (2-{4-[(2,4-difluorophenyl)methyl]piperazin-1-yl}-3-(1-methyl-1H-pyrazol-4-yl)pyrido[3,4-b]pyrazin-7-yl)methanol], the half-maximal inhibitory concentration (IC50) at GPR3 (setting [1]) lay in the range of 1000 to 30000 nM; against GPR6 (setting [2]), 100 to 1000 nM.

Take `CC(=O)N1CCc2nc(N3CC[C@H](Oc4ccc(F)cc4F)[C@@H](F)C3)c(-c3cnn(C)c3)nc2C1` (single isomer, unassigned) [Compound 331]: the IC50 on GPR3 (procedure of Example 24) and against GPR6 (procedure of Example 24) was 1000 to 30000 nM each time.

As for `CN1CCc2nc(N3CCC(Oc4ccc(F)cc4F)CC3)c(-c3cnn(C4CCCCO4)c3)nc2C1` (centres unmarked) [Compound 169, 4-(2,4-difluorophenoxy)-1-{6-methyl-3-[1-(oxan-2-yl)-1H-pyrazol-4-yl]-5H,6H,7H,8H-pyrido[3,4-b]pyrazin-2-yl}piperidine], the half-maximal inhibitory concentration (IC50) at GPR3 (setting [1]) and against GPR6 (setting [2]) was 1000 to 30000 nM throughout.

Regarding `CCOc1ccc(CN2CCN(c3nc4c(nc3-c3cnn(C)c3)CN(C(C)=O)CC4)CC2)c(F)c1` [Compound 362, 1-(2-{4-[(4-ethoxy-2-fluorophenyl)methyl]piperazin-1-yl}-3-(1-methyl-1H-pyrazol-4-yl)-5H,6H,7H,8H-pyrido[3,4-b]pyrazin-6-yl)ethan-1-one], the concentration for half-maximal inhibition (IC50) at GPR3 (procedure of Example 24) and against GPR6 (procedure of Example 24) was 1000 to 30000 nM in each case.

Regarding `CCn1cc(-c2nc3c(nc2N2CCC(Oc4ccc(F)cc4F)CC2)CCN(S(N)(=O)=O)C3)cn1` [Compound 478, 2-(4-(2,4-difluorophenoxy)piperidin-1-yl)-3-(1-ethyl-1H-pyrazol-4-yl)-7,8-dihydropyrido[3,4-b]pyrazine-6(5H)-sulfonamide], the half-maximal inhibitory concentration (IC50) against GPR3 (setting [1]) lay within 1000 to 30000 nM; against GPR6 (setting [2]) it was 100 to 1000 nM.

Turning to `CC(=O)N1CCc2nc(N3CCN(Cc4ccncc4)CC3)c(-c3cnn(C)c3)nc2C1` [Compound 518, 1-[3-(1-methyl-4-pyrazolyl)-2-{4-[(4-pyridyl)methyl]-1-piperazinyl}-5,6,7,8-tetrahydro-1,4,6-triaza-6-naphthyl]-1-ethanone], the 50% inhibitory concentration (IC50) against GPR3 (setting [3]) and against GPR6 (setting [4]) was 1000 to 30000 nM in each case.

As to `COc1nccc(-c2nc3c(nc2N2CCC(Oc4ccc(F)cc4F)CC2)CCN(C(C)=O)C3)n1` [Compound 111, 1-{2-[4-(2,4-difluorophenoxy)piperidin-1-yl]-3-(2-methoxypyrimidin-4-yl)-5H,6H,7H,8H-pyrido[3,4-b]pyrazin-6-yl}ethan-1-one], the 50% inhibitory concentration (IC50) at GPR3 (setting [1]) and against GPR6 (setting [2]) was 100 to 1000 nM each time.

For the compound `CC(C)(O)C(C)(O)c1cc2nc(-c3cnn(C(F)F)c3)c(N3CCC(Oc4ccc(F)cc4F)CC3)nc2cn1` (centres unmarked) [Compound 674, 2-{2-[1-(difluoromethyl)-4-pyrazolyl]-3-[4-(2,4-difluorophenoxy)-1-piperidyl]-1,4,6-triaza-7-naphthyl}-3-methyl-2,3-butanediol], the results for the half-maximal inhibitory concentration (IC50) at GPR3 (procedure of Example 24) and at GPR6 (procedure of Example 24) were 1000 to 30000 nM and less than 100 nM, respectively.

Take `COc1ccc(C(=O)N2CCN(c3nc4c(nc3-c3cnn(C)c3)CN(C(C)=O)CC4)CC2)cc1F` [Compound 282, 1-{2-[4-(3-fluoro-4-methoxybenzoyl)piperazin-1-yl]-3-(1-methyl-1H-pyrazol-4-yl)-5H,6H,7H,8H-pyrido[3,4-b]pyrazin-6-yl}ethan-1-one]: the IC50 on GPR3 (procedure of Example 24) and at GPR6 (procedure of Example 24) was not below 30000 nM in each case.

With `Cn1cc(-c2nc3cnccc3nc2N2CCN(Cc3ccc(F)cc3F)C[C@H]2CO)cn1` (single isomer, unassigned) [Compound 292], the results for the half-maximal inhibitory concentration (IC50) on GPR3 (procedure of Example 24) and on GPR6 (procedure of Example 24) were 1000 to 30000 nM and not below 30000 nM, respectively.

With `CC(=O)N1CCc2nc(N3CCC(Oc4ccc(F)cc4F)CC3)c(-c3cncc(Cl)c3)nc2C1` [Compound 136, 1-[3-(5-chloropyridin-3-yl)-2-[4-(2,4-difluorophenoxy)piperidin-1-yl]-5H,6H,7H,8H-pyrido[3,4-b]pyrazin-6-yl]ethan-1-one], the 50% inhibitory concentration (IC50) against GPR3 (setting [1]) fell in the range of 1000 to 30000 nM; at GPR6 (setting [2]), 100 to 1000 nM.

For the compound `CC(=O)Nc1cc2nc(N3CCC(Oc4ccc(F)cc4F)CC3)c(-c3cnn(C)c3)nc2cn1` [Compound 296, N-{2-[4-(2,4-difluorophenoxy)piperidin-1-yl]-3-(1-methyl-1H-pyrazol-4-yl)pyrido[3,4-b]pyrazin-7-yl}acetamide], the IC50 against GPR3 (procedure of Example 24) and on GPR6 (procedure of Example 24) was 1000 to 30000 nM throughout.

Turning to `O=C(C1COC1)N1CCc2nc(N3CCC(Oc4ccc(F)cc4F)CC3)c(-c3cnn(C4CCCCO4)c3)nc2C1` (centres unmarked) [Compound 172, 4-(2,4-difluorophenoxy)-1-{3-[1-(oxan-2-yl)-1H-pyrazol-4-yl]-6-(oxetane-3-carbonyl)-5H,6H,7H,8H-pyrido[3,4-b]pyrazin-2-yl}piperidine], the IC50 on GPR3 (setting [1]) lay in the range of 1000 to 30000 nM; at GPR6 (setting [2]) it was 100 to 1000 nM.

For `Fc1ccc(OC2CCN(c3nc4ccncc4nc3-c3ncn[nH]3)CC2)c(F)c1` [Compound 96, 4-(2,4-difluorophenoxy)-1-[3-(1H-1,2,4-triazol-5-yl)pyrido[3,4-b]pyrazin-2-yl]piperidine], the concentration for half-maximal inhibition (IC50) against GPR3 (setting [1]) and against GPR6 (setting [2]) was 1000 to 30000 nM throughout.

Take `Cn1cc(-c2nc3cnc(C#N)cc3nc2N2CCC(Oc3ccc(F)cc3F)CC2)cn1` [Compound 293, 2-[4-(2,4-difluorophenoxy)piperidin-1-yl]-3-(1-methyl-1H-pyrazol-4-yl)pyrido[3,4-b]pyrazine-7-carbonitrile]: the IC50 at GPR3 (procedure of Example 24) and on GPR6 (procedure of Example 24) was 1000 to 30000 nM in each case.

Consider `Fc1ccc(OC2CC=C(c3nc4cnccc4nc3-c3ncco3)CC2)c(F)c1` (centres unmarked) [Compound 304, 2-{3-[4-(2,4-difluorophenoxy)cyclohex-1-en-1-yl]pyrido[3,4-b]pyrazin-2-yl}-1,3-oxazole], for which the half-inhibitory concentration (IC50) against GPR3 (procedure of Example 24) is not below 30000 nM; against GPR6 (procedure of Example 24) it was 1000 to 30000 nM.

Turning to `CC(=O)N1CCc2nc(N3CCC(Oc4ccccc4F)CC3)c(-c3cnn(C)c3)nc2C1` [Compound 420, 1-{2-[4-(2-fluorophenoxy)piperidin-1-yl]-3-(1-methyl-1H-pyrazol-4-yl)-5H,6H,7H,8H-pyrido[3,4-b]pyrazin-6-yl}ethan-1-one], the half-inhibitory concentration (IC50) was 1000 to 30000 nM against GPR3 (setting [1]) and 100 to 1000 nM against GPR6 (setting [2]).

As to `CC(C)(O)C(C)(O)c1cc2nc(N3CCC(Oc4ccc(F)cc4F)CC3)c(-c3cnn(C(F)F)c3)nc2cn1` (centres unmarked) [Compound 635, 2-{3-[1-(difluoromethyl)-4-pyrazolyl]-2-[4-(2,4-difluorophenoxy)-1-piperidyl]-1,4,6-triaza-7-naphthyl}-3-methyl-2,3-butanediol], the half-maximal inhibitory concentration (IC50) lay within 1000 to 30000 nM against GPR3 (procedure of Example 24) and 100 to 1000 nM against GPR6 (procedure of Example 24).

Consider `COC1CCC(c2nc3c(nc2N2CCC(Oc4ccc(F)cc4F)CC2)CCN(C(=O)CO)C3)CC1` (centres unmarked) [Compound 520, 1-{2-[4-(2,4-difluorophenoxy)-1-piperidyl]-3-(4-methoxycyclohexyl)-5,6,7,8-tetrahydro-1,4,6-triaza-6-naphthyl}-2-hydroxy-1-ethanone], for which the 50% inhibitory concentration (IC50) against GPR3 (setting [3]) and against GPR6 (setting [4]) was 1000 to 30000 nM each time.

As to `CC(=O)N1Cc2nc(-c3cnn(C)c3)c(N3CCC(Oc4ccc(F)cc4F)CC3)nc2CC1C` (single isomer, unassigned) [Compound 445], the results for the IC50 against GPR3 (setting [1]) and against GPR6 (setting [2]) were 1000 to 30000 nM and 100 to 1000 nM, respectively.

Regarding `Fc1ccc(Cl)cc1CN1CCN(c2nc3cnccc3nc2-c2ncc[nH]2)CC1` [Compound 42], the values for the IC50 at GPR3 (setting [5]) and on GPR6 (setting [5]) were 100 to 1000 nM and 1000 to 30000 nM, respectively.

With `CC(=O)N1CCc2nc(N3CCC(Oc4ccc(F)cc4F)CC3)c(-c3cnn(CF)c3)nc2C1` [Compound 439, 1-{2-[4-(2,4-difluorophenoxy)piperidin-1-yl]-3-[1-(fluoromethyl)-1H-pyrazol-4-yl]-5H,6H,7H,8H-pyrido[3,4-b]pyrazin-6-yl}ethan-1-one], the results for the IC50 on GPR3 (setting [1]) and on GPR6 (setting [2]) were 1000 to 30000 nM and less than 100 nM, respectively.

With `CC(C)(O)C(=O)c1cc2nc(-c3cnn(C(F)F)c3)c(N3CCN(Cc4ccc(F)cc4F)CC3)nc2cn1` [Compound 620, 1-{2-[1-(difluoromethyl)-4-pyrazolyl]-3-{4-[(2,4-difluorophenyl)methyl]-1-piperazinyl}-1,4,6-triaza-7-naphthyl}-2-hydroxy-2-methyl-1-propanone], the IC50 at GPR3 (procedure of Example 24) and on GPR6 (procedure of Example 24) was 100 to 1000 nM throughout.

`CC(C)(O)C(O)c1cc2nc(-c3cnn(CF)c3)c(N3CCN(Cc4ccc(F)cc4F)CC3)nc2cn1` (single isomer, unassigned) [Compound 603]: the IC50 against GPR3 (setting [3]) was 1000 to 30000 nM; on GPR6 (setting [4]) it was less than 100 nM.

By IC50 is commonly meant the concentration that gives 50% inhibition.
